Assay results reported in ChEMBL document CHEMBL4346683 (Eur J Med Chem, 2019).
≈ marks a conversion by molar mass, not a printed value.

Tested on: Mycobacterium tuberculosis
Assay: Antibacterial activity against multidrug resistant Mycobacterium tuberculosis
Assay type: functional

Structure (SMILES): CCCCCCCCCCS(=O)(=O)CC(N)=O
- MIC: 0.75 to 1.5 µg/mL (≈ 2.85 to 5.69 µM)
